Results as given in US10759740B2, “Antibacterial agents” (Rutgers, The State University of New Jersey, priority 2016, dated 2020).

Test system: L. gasseri biofilm
Experiment: Minimum biofilm bactericidal concentration (MBC-B)
Format: cell-based, Lactobacillus gasseri
Details: pre-formed biofilm, ≥3 log reduction
Method: G. vaginalis ATCC 14019 strain was grown overnight in Brain Heart Infusion broth (Difco, Sparks, Md.) supplemented with 3% horse serum (sBHI) (JRH Biosciences, KS), while BHI supplemented with 1% glucose (BHIG) was used for biofilm formation assays. Each experiment using G. vaginalis was performed anaerobically (10% hydrogen, 5% carbon dioxide, and 85% nitrogen) within anaerobic glove boxes (Coy Laboratory Products, Inc., Grass Lake, Mich., USA). Three species of vaginal Lactobacillus were used in this study to evaluate the possible harmful effects of CAms on beneficial bacteria: Lactobacillus plantarum ATCC 39268, Lactobacillus rhamnosus 160 (provided by Dr. Aroutcheva, Rush University Medical Center) and Lactobacillus gasseri ATCC 33323; all were grown for 18-24 h in DeMan, Rogosa and Sharpe broth (MRS Difco B D, Franklin Lakes, N.J., USA) under aerobic conditions at 37° C. For lactobacilli biofilm formation, MRS broth supplemented with 1% glucose and 2% sucrose (Fisher Scientific, Waltham, Mass., USA) was utilized.
This assay was performed according to Algburi et al. (Algburi et al., 2015. Path Dis 73(5)) with minor modifications: the overnight-grown G. vaginalis was diluted to approximately 10^7 CFU/ml. For the biofilm formation assay, aliquots of 200 μl were added into a 96-well tissue culture microplate, sealed by amplification tape (Nalge Nunc International, Rochester, N.Y., USA) and incubated for 24-36 h at 37° C. After incubation, the planktonic cells were removed by gently washing the biofilm twice with 200 μl of fresh broth. The biofilm was then treated with 200 μl of a predetermined concentration of the tested compound. The microplate was incubated for 24 h at 37° C. under anaerobic conditions. After incubation, the antimicrobials (supernatant) were discarded and the biofilm was washed twice with fresh BHIG broth. The biofilm was then disrupted by vigorous pipetting, in order to determine the number of biofilm-associated cells using the spot plate method.

Question: `CCCCCCCC(=O)OC(C(=O)NCCN)C(OC(=O)CCCCCCC)C(=O)NCCN.Cl.Cl` (stereo not drawn) [8a] was tested. Which “MBC-B L. gasseri” value did it give?
Answer: >890 µM

Question: `CCCCCCCCCCOC(C(=O)NCCN)C(OCCCCCCCCCC)C(=O)NCCN.Cl.Cl` (stereo not drawn) [5b] was tested. Which “MBC-B L. gasseri” value did it give?
Answer: >850 µM

Question: Which “MBC-B L. gasseri” value does the source give for `CCCCCCCCCC(=O)OC(C(=O)NCCN)C(OC(=O)CCCCCCCCC)C(=O)NCCN.Cl.Cl` (stereo not drawn) [8b] here?
Answer: 810 µM

Test system: planktonic cells of G. vaginalis
Experiment: Checkerboard assay, planktonic cells
Format: cell-based, Gardnerella vaginalis
Details: 24 h
Method: To evaluate the potential effectiveness of the antimicrobial combinations on planktonic and biofilm cells, a checkerboard assay was performed following Algburi et al. (Algburi et al., 2015. Path Dis 73(5)) with minor modifications. For planktonic cells, the overnight grown G. vaginalis was diluted to approximately 10^6 CFU/ml. Each antimicrobial agent was diluted twofold with sBHI broth into two separate 96-well non-tissue culture microplates. From each dilution of antimicrobial B, 50 μl was added horizontally over 50 μl of antimicrobial A. Then, 100 μl of bacterial suspension (10^6 CFU/ml) was separately added to the predetermined concentration of antimicrobial combinations. The MIC of each combination was determined after 24 h of incubation.
(§1) Isobolograms were used to compare the MIC and MBC-B values of each antimicrobial alone with its MIC and MBC-B values in combination with other antimicrobials. The point on the axis (X) refers to MIC or MBC-B values of the first antimicrobial with the coordinates (0, x), and the point on the axis (Y) represents the MIC or MBC-B values of the second antimicrobial with the coordinates (y, 0) when they used alone. The two MIC or MBCs-B values are connected by a dashed line (Turovskiy Y, Chikindas M L. 2011 Probiotics Antimicrob Proteins 3:144-149). The MICs or MBCs-B of each antimicrobial combination are plotted as dots on the graph. Results are expressed according to the locations of these dots from the line that connects MICs or MBCs-B of the first and second antimicrobials. When MICs or MBCs-B values are located under the line, the two combining antimicrobials are synergized, but antagonized against the tested microorganism when these dots of interaction are above. An additive effect is observed when these dots are located on the line.

Question: Which “MIC of CAm in combination with metronidazole” value (“MIC of CAm in combination” below) does the source give for `CCCCCCCC(=O)OC(C(=O)NCCN)C(OC(=O)CCCCCCC)C(=O)NCCN.Cl.Cl` (stereo not drawn) [8a] here?
Answer: 3.4 µM

Question: How did the “MIC of CAm in combination” value turn out when `CCCCCCCCCCOC(C(=O)NCCN)C(OCCCCCCCCCC)C(=O)NCCN.Cl.Cl` (stereo not drawn) [5b] was run?
Answer: 0.2 µM

Question: Which “MIC of CAm in combination” value does the source give for `CCCCCCCCCC(=O)OC(C(=O)NCCN)C(OC(=O)CCCCCCCCC)C(=O)NCCN.Cl.Cl` (stereo not drawn) [8b] here?
Answer: 0.2 µM

Same assay, conditions: read-out: MIC when used alone

Question: How did the MIC turn out when `CCCCCCCC(=O)OC(C(=O)NCCN)C(OC(=O)CCCCCCC)C(=O)NCCN.Cl.Cl` (stereo not drawn) [8a] was run?
Answer: 24.4 µM

Question: `CCCCCCCCCCOC(C(=O)NCCN)C(OCCCCCCCCCC)C(=O)NCCN.Cl.Cl` (stereo not drawn) [5b] was tested. Which MIC did it give?
Answer: 1.1 µM

Question: `CCCCCCCCCC(=O)OC(C(=O)NCCN)C(OC(=O)CCCCCCCCC)C(=O)NCCN.Cl.Cl` (stereo not drawn) [8b] was tested. Which MIC did it give?
Answer: 10 µM

Test system: biofilms of G. vaginalis
Experiment: Checkerboard assay, biofilm cells
Format: cell-based, Gardnerella vaginalis
Details: not given
Method: For biofilm formation, the overnight culture of G. vaginalis was diluted to approximately 10^7 CFU/ml and 200 μl was transferred into a 96-well tissue culture microplate and incubated anaerobically at 37° C. for 24-36 h. Following biofilm formation and removal of non-adherent cells by washing the biofilm twice with BHIG, each antimicrobial was diluted twofold separately with BHIG broth into two 96-white deep-well microplates. From each dilution of antimicrobial B, 125 μL was added horizontally over 125 μL of antimicrobial A (see FIG. 1 of Algburi et al., 2015. Path Dis 73(5)). From each combination, 200 μL samples were added to the biofilm in sequence, and the microplate was incubated for 24 h at 37° C. under anaerobic conditions. The spot plate method was utilized for counting the number of CFU/ml and evaluating the bactericidal activity (MBC-B) of each antimicrobial combination against biofilm-associated G. vaginalis. Isobolograms were used to analyze the nature of antimicrobial interaction, which is classified as synergistic, antagonistic or additive activity against the planktonic and biofilm cells.
as §1

Question: For `CCCCCCCC(=O)OC(C(=O)NCCN)C(OC(=O)CCCCCCC)C(=O)NCCN.Cl.Cl` (stereo not drawn) [8a], which “MBC-B of CAm when used alone” value is on record?
Answer: 92.7 µM

Question: `CCCCCCCCCCOC(C(=O)NCCN)C(OCCCCCCCCCC)C(=O)NCCN.Cl.Cl` (stereo not drawn) [5b] was tested. Which “MBC-B of CAm when used alone” value did it give?
Answer: 340 µM

Question: `CCCCCCCCCC(=O)OC(C(=O)NCCN)C(OC(=O)CCCCCCCCC)C(=O)NCCN.Cl.Cl` (stereo not drawn) [8b] was tested. Which “MBC-B of CAm when used alone” value did it give?
Answer: 67.7 µM

Same assay, conditions: 24 h

Question: With `CCCCCCCC(=O)OC(C(=O)NCCN)C(OC(=O)CCCCCCC)C(=O)NCCN.Cl.Cl` (stereo not drawn) [8a] as the compound, how does the “MBC-B of CAm in combination with metronidazole” value (shortened to “MBC-B of CAm in combination”) read?
Answer: 26.9 µM

Question: Which “MBC-B of CAm in combination” value does the source give for `CCCCCCCCCCOC(C(=O)NCCN)C(OCCCCCCCCCC)C(=O)NCCN.Cl.Cl` (stereo not drawn) [5b] here?
Answer: 25.7 µM

Question: `CCCCCCCCCC(=O)OC(C(=O)NCCN)C(OC(=O)CCCCCCCCC)C(=O)NCCN.Cl.Cl` (stereo not drawn) [8b] was tested. Which “MBC-B of CAm in combination” value did it give?
Answer: 6.3 µM

Test system: G. vaginalis biofilm formation
Experiment: Minimum biofilm inhibition concentration (MIC-B), crystal violet
Format: cell-based, Gardnerella vaginalis
Details: 48 h, vs untreated control, FIG. 7
Method: The MIC-B50 of an antimicrobial is defined as the lowest concentration of the antimicrobial that inhibits 50% of treated biofilm compared to the untreated one (control), while MIC-B90 was defined as the minimum biofilm inhibitory concentration that inhibits 90% (Sandoe et al., 2006. J Antimicrob Chemother 57:767-770). G. vaginalis cells were grown overnight in sBHI broth anaerobically at 37° C. The overnight culture was diluted in BHIG broth 1:100 (v:v) to achieve ˜10^6 CFU/ml for the biofilm inhibition assay. The CAms were diluted twofold with BHIG into a 96-well tissue culture microplate (Falcon, Corning Incorporated, Corning, N.Y., USA) with a final volume of 100 μl in each well. Aliquots of 100 μl of diluted cell suspensions at 10^6 CFU/ml were added separately to different concentrations of CAms in a 96-well tissue culture microplate. The microplate was incubated for 48 h at 37° C. under anaerobic conditions. After incubation, the number of non-adherent bacterial cells was counted using a spot plate method and compared with the number of cells of the non-treated control. Then, the intact biofilm was stained with 0.1% crystal violet.
This method was performed as described by Borucki et al. with minor modifications (Borucki et al., 2003. Appl Environ Microbiol 69:7336-7342). Briefly, after counting the non-adherent cells, the biofilm was fixed at 60° C. for 60 min. in an inverted position using an incubator (New Brunswick Scientific Co., Inc., NJ, USA). In each well, 125 μl of 0.1% crystal violet was added and left at room temperature for 20 min. Each well was then rinsed three to four times with 200 μl of ddH2O and left for 15 min. to dry at room temperature. To solubilize the biofilm-stained CV, 200 μl of 95% ethanol in water was added and the microplate was incubated at 4° C. for 30 min. One hundred microliter samples of solubilized CV were transferred to a new flat-bottomed 96-well microplate. The absorbance of each sample was measured using a plate reader at 595 nm (Model 550, Bio-Rad Laboratories, Hercules, Calif., USA).

Question: With `CCCCCCCC(=O)OC(C(=O)NCCN)C(OC(=O)CCCCCCC)C(=O)NCCN.Cl.Cl` (stereo not drawn) [8a] as the compound, how does the “MIC-B: concentration preventing 50% or >50% of biofilm formation” value read?
Answer: 7.2 µM

Question: With `CCCCCCCCCCOC(C(=O)NCCN)C(OCCCCCCCCCC)C(=O)NCCN.Cl.Cl` (stereo not drawn) [5b] as the compound, how does the “MIC-B: concentration preventing 50% or >50% of biofilm formation” value read?
Answer: 1.6 µM

Question: With `CCCCCCCCCC(=O)OC(C(=O)NCCN)C(OC(=O)CCCCCCCCC)C(=O)NCCN.Cl.Cl` (stereo not drawn) [8b] as the compound, how does the “MIC-B: concentration preventing 50% or >50% of biofilm formation” value read?
Answer: 3.2 µM
